ChEMBL document CHEMBL1136641, “Anastatins A and B, new skeletal flavonoids with hepatoprotective activities from the desert plant Anastatica hierochuntica” (2003)

Tests used:
Mus musculus [1] = organism: Mus musculus; assay: Inhibitory activity derived from Anastatica hierochuntica on D-Gal-induced cytotoxicity in primary cultured mouse hepatocytes at a concentration of 30 uM; type: functional; settings: Hepatocyte
Mus musculus [2] = organism: Mus musculus; assay: Inhibitory activity derived from Anastatica hierochuntica on D-Gal-induced cytotoxicity in primary cultured mouse hepatocytes at a concentration of 10 uM; type: functional; settings: Hepatocyte
Mus musculus [3] = organism: Mus musculus; assay: Inhibitory activity derived from Anastatica hierochuntica on D-Gal-induced cytotoxicity in primary cultured mouse hepatocytes at a concentration of 3 uM; type: functional; settings: Hepatocyte
Mus musculus [4] = organism: Mus musculus; assay: Inhibitory activity derived from Anastatica hierochuntica on D-Gal-induced cytotoxicity in primary cultured mouse hepatocytes at a concentration of 0 uM; type: functional, Hepatocyte

SMILES	inhibition at 30 µM (Mus musculus [1]) [%]	inhibition at 10 µM (Mus musculus [2]) [%]	inhibition at 3 µM (Mus musculus [3]) [%]	Inhibition (Mus musculus [4]) [%]
COc1cc([C@H]2Oc3cc(O)cc(O)c3C(=O)[C@@H]2O)ccc1O	36.7	7.3	4	0
O=C1c2c(O)cc(O)cc2O[C@@H](c2ccc(O)c(O)c2)[C@H]1O [(+)-EPITAXIFOLIN]	21.7	11	2.1	0
O=C1c2c(O)cc(O)cc2O[C@H](c2ccc(O)c(O)c2)[C@H]1O [(+)-TAXIFOLIN]	13	11.7	9.6	0
O=C1C[C@@H](c2ccc(O)cc2)Oc2cc3oc4cc(O)c(O)cc4c3c(O)c21 [ANASTATIN A]	46.2	31.5	17.2	0
O=C1C[C@@H](c2ccc(O)cc2)Oc2c1c(O)cc1oc3cc(O)c(O)cc3c21 [ANASTATIN B]	55	40.5	28.6	0
O=C1c2c(O)cc(O)cc2O[C@H](c2ccc(O)cc2)[C@H]1O [DIHYDROKAEMPFEROL]	33.2	14.2	7.8	0
O=C1C[C@@H](c2ccc(O)c(O)c2)Oc2cc(O)cc(O)c21 [ERIODICTYOL]	27.3	8.3	5.9	0
O=C1C[C@@H](c2ccc(O)cc2)Oc2cc(O)cc(O)c21 [NARINGENIN]	43.1	9.3	2.9	0
COc1cc(C2Oc3cc([C@H]4Oc5cc(O)cc(O)c5C(=O)[C@@H]4O)ccc3OC2CO)ccc1O (stereo partly specified) [SILIBININ]	45.2	7.7	4.8	0
